Assay results taken from paper PMC9370283, “New Quinoxaline-Based Derivatives as PARP-1 Inhibitors: Design, Synthesis, Antiproliferative, and Computational Studies” (Molecules, 2022).

Key:
MDA-MB-436 cells [1] = assay: Annexin V-FITC/PI apoptosis assay, flow cytometry; conditions: IC50 concentration, 48 h
Text: medium was used as a negative control.
(§1) Mean net fluorescent intensities (NFI) were quantified.

MDA-MB-436 cells [2] = assay: cell cycle analysis, PI staining, flow cytometry; conditions: IC50 concentration 2.57 µM, 48 h
Text: medium was used as a negative control.
as §1

MDA-MB-436 cells [3] = assay: Cyto-ID autophagy assay, flow cytometry; conditions: IC50 value of compound, 24 h
Text: medium was used as a negative control.
as §1

PARP-1 = biological target: T1, PARP-1 (Homo sapiens, UniProt P09874); assay: colorimetric 96-well PARP-1 assay kit (BPS Bioscience); type: biochemical
T1 construct: purchased BPS Bioscience 80580
T1 sequence (P09874 whole entry): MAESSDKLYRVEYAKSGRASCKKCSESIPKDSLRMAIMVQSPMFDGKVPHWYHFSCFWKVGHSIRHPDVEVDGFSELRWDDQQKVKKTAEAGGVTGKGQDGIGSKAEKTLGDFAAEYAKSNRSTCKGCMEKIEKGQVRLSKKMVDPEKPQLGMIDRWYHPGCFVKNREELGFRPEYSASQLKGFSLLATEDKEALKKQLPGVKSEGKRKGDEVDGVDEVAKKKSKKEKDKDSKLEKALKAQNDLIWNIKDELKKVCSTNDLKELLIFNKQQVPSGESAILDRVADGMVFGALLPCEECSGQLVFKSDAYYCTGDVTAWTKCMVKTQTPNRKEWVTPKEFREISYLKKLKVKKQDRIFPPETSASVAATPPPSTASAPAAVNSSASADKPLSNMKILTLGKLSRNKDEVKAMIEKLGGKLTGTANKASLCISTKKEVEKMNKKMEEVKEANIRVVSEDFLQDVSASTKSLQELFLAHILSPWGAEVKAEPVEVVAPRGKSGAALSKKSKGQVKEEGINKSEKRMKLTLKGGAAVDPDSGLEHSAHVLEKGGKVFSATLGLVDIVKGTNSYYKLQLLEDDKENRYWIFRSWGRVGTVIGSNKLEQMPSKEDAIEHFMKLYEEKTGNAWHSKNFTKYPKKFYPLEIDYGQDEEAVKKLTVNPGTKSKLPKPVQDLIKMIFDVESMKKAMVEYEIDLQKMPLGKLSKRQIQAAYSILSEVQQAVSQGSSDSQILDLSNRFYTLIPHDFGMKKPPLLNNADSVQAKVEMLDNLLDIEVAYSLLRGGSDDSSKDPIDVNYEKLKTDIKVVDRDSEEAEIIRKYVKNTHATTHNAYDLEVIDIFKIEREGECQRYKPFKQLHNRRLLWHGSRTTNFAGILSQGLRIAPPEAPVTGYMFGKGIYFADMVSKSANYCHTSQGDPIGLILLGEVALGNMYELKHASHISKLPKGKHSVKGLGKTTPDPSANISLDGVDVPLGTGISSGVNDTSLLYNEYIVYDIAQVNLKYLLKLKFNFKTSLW

MDA-MB-436 = assay: in vitro cytotoxicity, MTT assay, MDA-MB-436; conditions: for % viability MDA-MB-436: MTT lab report
WI-38 = assay: cytotoxicity against normal cells, MTT assay, WI-38; type: cell-based; conditions: Homo sapiens, normal cell line, read-out: IC50 (mean ± SEM) WI-38
Procedure: It has been reported that the frequency and severity of the side effects on normal healthy cells at therapeutic levels are deemed to be critical factors that distinguish different anticancer drugs from each other. […]
to the wells designated as “Blank”. The amount of PARP-1 required for the assay was then calculated. The reaction was initiated by adding 20 µL of diluted PARP-1 en zy me to the wells designated “Positive Control” and “Test Inhibitor Control”. The strip wells were incubated at room temperature for 1 hou r. The strip wells were then wash ed three times with 200 µL of PBST buffer.
Then, 50 µL of 50 times diluted Streptavidin-HRP with blocking buffer was added to each well, and the strips were further incubated at room temperature for 30 min. After washing the wells three times with 200 µL of PBST buffer, HRP colorimetric substrate was added to each well, and the plate was incubated at room temperature until a blue color was developed in the positive control well. Then, the reaction was quenched with 100 µL per well of 2 M sulfuric acid. Carrier solvent (DMSO 5%, v/v) was used as a negative control. All compounds including Ol ap arib were t ested at 5 concentrations (100, 10, 1, 0.1, and 0.01 µM). The optical density (OD) of each well was measured spectrophotometrically at 450 nm with an ELISA microplate reader (ChroMate-4300, FL, USA). The IC50 values were calculated according to the equation for Boltzmann sigmoidal concentration-response curves using the nonlin ear regression fitting model (GraphPad Prism Version 8). All assays were performed in triplicate in 3 repeated experiments. The obtained data are presented as means standard error of the means from 3 independent repeats (n = 3).
4.3.In vitro anticancer screening
The cell lines were purchased from the American Type Culture collection as follows:
Breast Cancer cell lines (MDA-MB-436) and WI38. Cytotoxic activity screening was performed using MTT assay. Exponentially, cells were placed in 10^4 cells/ well for 24 h, and then add fresh med ium containing different concen trations of the tested sample. Serial two-fold dilutions of the tested sample were added using a multichannel pipette. Moreover, all cells were cultivated at 37 °C, with 5% CO2 and 95% humidity. Also, incubation of control cells occurred at 3 7 ° C . […] Rinse the wells using water until no stain. After that, add 30% g lacial acetic acid to all wells with shaking plates on a Microplate reader (TECAN, Inc.) to measure the absorbance, using a test wavelength of 490 nm. Besides, compare the treated samples with the control cell. The cytotoxicity was estimated by IC50 in (μg /mL), the concentration that inhibits 50% of the growth of the examined cell.

Cc1cc(C)n(S(=O)(=O)c2ccc3[nH]c(=O)c(=O)[nH]c3c2)n1 [Compound 5, 6-((3,5-Dimethyl-1H-pyrazol-1-yl)sulfonyl)-1,4-dihydroquinoxaline-2,3-dione]
normal intact cells (Q2-3) (MDA-MB-436 cells [1]): 96.98% | early apoptotic cell population (Q2-4) (MDA-MB-436 cells [1]; control 0.14%): 0.27% | late apoptotic cell population (Q2-2) (MDA-MB-436 cells [1]; control 0.98%): 1.02% | necrotic cell population (Q2-1) (MDA-MB-436 cells [1]; control 1.11%): 1.72% | cell number in sub-G1 stage (MDA-MB-436 cells [2]; control 1.76%): 1.66% | percentage of cells in G2 stage (MDA-MB-436 cells [2]; control 25.12%): 30.39% | cell distribution in G1 phase (MDA-MB-436 cells [2]; control 51.96%): 40.89% | increase of autophagic cell death (MDA-MB-436 cells [3]): 68.65% | fold higher PARP-1 inhibitory activity than Olaparib (PARP-1; ratio of IC50 values): 1.5 fold | IC50 (PARP-1; read-out: IC50 (mean ± SEM) PARP-1): 3.05 ± 0.16 nM | SI (MDA-MB-436; MDA-MB-436, matches IC50 WI-38 / IC50 MDA-MB-436): 31.77 | % viability MDA-MB-436 (MDA-MB-436; log conc. 0.193 (1.6uM)): 53.46% | % viability MDA-MB-436 (MDA-MB-436; log conc. 0.796 (6.3uM)): 45.17% | % viability MDA-MB-436 (MDA-MB-436; log conc. 1.398 (25uM)): 37.05% | % viability MDA-MB-436 (MDA-MB-436; log conc. 2 (100uM)): 28.36% | % viability MDA-MB-436 (MDA-MB-436; log conc. -0.409 (0.4uM)): 60.26% | IC50 (MDA-MB-436; read-out: IC50 (mean ± SEM) MDA-MB-436, mutant BRCA1 breast cancer cells, MTT): 2570 ± 150 nM | times more potent than the reference drug (antiproliferative, MDA-MB-436) (MDA-MB-436; versus Olaparib): approximately 4 times | IC50 (WI-38): 81700 ± 1700 nM
